Patent publication US11965039B2, “Compstatin analogues and their medical uses” (priority 2018, dated 2024)
Read-outs that look alike come from different tables or passages of the source. Starred links: 1 amine or outer side, 2 acyl side, 3 side chain; linkers in the order of their positions; H or OH if unused. Positions of bridges follow the written chain, without caps; N, C: chain ends. Non-standard residues stand in square brackets, D forms with d. Residues, ends and D or L forms follow the SMILES beside them. Groups on a side chain read outwards from the residue. *: point of attachment. Trp(1-Me) = Cn1cc(C[C@H](N)C(=O)O)c2ccccc21; C18 diacid = O=C(O)CCCCCCCCCCCCCCCCC(=O)*; γGlu = O=C(O)[C@H](CCC(=O)[*:2])N[*:1]; Nva = CCC[C@H](N)C(=O)O; AEEA = NCCOCCOCC(=O)O; Sar = CNCC(=O)O

System: classical complement pathway
Assay: In vitro haemolysis assay (inhibition of classical complement pathway)
Assay type: cell-based, human
Outline: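 Compound dilutions preincubated 15 min at room temperature with diluted human serum (titrated per batch for 70-90% maximal haemolysis), then antibody-sensitized sheep RBC (10^7/well) added for 30 min at 37 °C in Tris/casein buffer, pH 7.4. Stopped with EDTA; haemolysis read at 405 nm; IC50 by 4PL fit.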

[1] = human serum, sensitized sheep red blood cells, Table 3, given as upper bounds, read-out: IC50, inhibition of hemolysis
[2] = human serum, sensitized sheep red blood cells, Table 4, valine 3 vs isoleucine 3 pairs, read-out: CP hemolysis IC50
[3] = Table 5, different residues at position 3 of Ac-IC(1)XWQDWGEHRC(1)T-NH2, read-out: IC50, CP hemolysis

Row | Compound | IC50 [1] | further results
1 | CC[C@H](C)[C@@H]1NC(=O)[C@@H](NC(=O)[C@H](Cc2ccccc2)NC(=O)[C@H](CCC(=O)O)NC(=O)[C@H](CO)NC(C)=O)CSSC[C@@H](C(=O)N(C)CC(=O)N[C@@H](CCC(=O)O)C(=O)NCC(=O)N[C@@H](CCC(=O)O)C(=O)N[C@@H](CO)C(=O)N[C@@H](CCC(=O)O)C(=O)N[C@@H](CO)C(=O)N[C@@H](CCCCNC(=O)CC[C@H](NC(=O)CCCCCCCCCCCCCCCCC(=O)O)C(=O)O)C(N)=O)NC(=O)[C@H](CCCNC(=N)N)NC(=O)[C@H](Cc2c[nH]cn2)NC(=O)[C@H](CCC(=O)O)NC(=O)CNC(=O)[C@H](Cc2c[nH]c3ccccc23)NC(=O)[C@H](CC(=O)O)NC(=O)[C@H](CCC(N)=O)NC(=O)[C@H](Cc2cn(C)c3ccccc23)NC1=O [Compound 141] (Ac-SEFCI[Trp(1-Me)]QDWGEHRC[Sar]EGESESK([γGlu-C18 diacid])-NH2; disulfide 4-14) | < 100 nM | 
2 | CC[C@H](C)[C@@H]1NC(=O)[C@@H](NC(=O)[C@H](Cc2ccc(O)cc2)NC(=O)[C@H](C)NC(=O)[C@H](CO)NC(=O)[C@H](CO)NC(=O)[C@H](CCC(=O)O)NC(C)=O)CSSC[C@@H](C(=O)N[C@H](C(N)=O)[C@@H](C)O)NC(=O)[C@H](CCCNC(=N)N)NC(=O)[C@H](Cc2c[nH]cn2)NC(=O)[C@H](CCC(=O)O)NC(=O)CNC(=O)[C@H](Cc2c[nH]c3ccccc23)NC(=O)[C@H](CC(=O)O)NC(=O)[C@H](CCC(N)=O)NC(=O)[C@H](Cc2c[nH]c3ccccc23)NC1=O [Compound 10] (Ac-ESSAYCIWQDWGEHRCT-NH2; disulfide 6-16) | < 100 nM | 
3 | CC[C@H](C)[C@@H]1NC(=O)[C@@H](NC(=O)[C@H](Cc2ccc(O)cc2)NC(=O)[C@H](CCC(=O)O)NC(=O)[C@H](CO)NC(C)=O)CSSC[C@@H](C(=O)N(C)CC(=O)N[C@@H](CCC(=O)O)C(=O)NCC(=O)N[C@@H](CCC(=O)O)C(=O)NCCOCCOCC(=O)NCCOCCOCC(=O)N[C@@H](CCCCNC(=O)CC[C@H](NC(=O)CNC(=O)CC[C@H](NC(=O)CCCCCCCCCCCCCCCCC(=O)O)C(=O)O)C(=O)O)C(N)=O)NC(=O)[C@H](CCCNC(=N)N)NC(=O)[C@H](Cc2c[nH]cn2)NC(=O)[C@H](CCC(=O)O)NC(=O)CNC(=O)[C@H](Cc2c[nH]c3ccccc23)NC(=O)[C@H](CCC(=O)O)NC(=O)[C@H](CCC(N)=O)NC(=O)[C@H](Cc2cn(C)c3ccccc23)NC1=O [Compound 125] (Ac-SEYCI[Trp(1-Me)]QEWGEHRC[Sar]EGE[AEEA][AEEA]K([γGlu-Gly-γGlu-C18 diacid])-NH2; disulfide 4-14) | < 500 nM | 
4 | CC[C@H](C)[C@H](NC(C)=O)C(=O)N[C@H]1CSSC[C@@H](C(=O)N[C@H](C(N)=O)[C@@H](C)O)NC(=O)[C@H](CCCNC(=N)N)NC(=O)[C@H](Cc2c[nH]cn2)NC(=O)[C@H](CCC(=O)O)NC(=O)CNC(=O)[C@H](Cc2c[nH]c3ccccc23)NC(=O)[C@H](CC(=O)O)NC(=O)[C@H](CCC(N)=O)NC(=O)[C@H](Cc2cn(C)c3ccccc23)NC(=O)[C@H]([C@@H](C)CC)NC1=O [Compound 4] (Ac-ICI[Trp(1-Me)]QDWGEHRCT-NH2; disulfide 2-12) | < 100 nM | 
5 | CC[C@H](C)[C@@H]1NC(=O)[C@@H](NC(=O)[C@@H](NC(=O)[C@H](CCC(=O)O)NC(C)=O)[C@@H](C)CC)CSSC[C@@H](C(=O)N[C@H](C(=O)N[C@@H](CCC(=O)O)C(=O)NCC(=O)N[C@@H](CCC(=O)O)C(N)=O)[C@@H](C)O)NC(=O)[C@H](CCCNC(=N)N)NC(=O)[C@H](Cc2c[nH]cn2)NC(=O)[C@H](CCC(=O)O)NC(=O)CNC(=O)[C@H](Cc2c[nH]c3ccccc23)NC(=O)[C@H](CC(=O)O)NC(=O)[C@H](CCC(N)=O)NC(=O)[C@H](Cc2c[nH]c3ccccc23)NC1=O [Compound 34] (Ac-EICIWQDWGEHRCTEGE-NH2; disulfide 3-13) | < 250 nM | 
6 | CC[C@H](C)[C@@H]1NC(=O)[C@@H](NC(=O)[C@H](Cc2ccccc2)NC(=O)[C@H](CCC(=O)O)NC(=O)[C@H](CO)NC(C)=O)CSSC[C@@H](C(=O)N(C)CC(=O)N[C@@H](CCC(=O)O)C(=O)NCC(=O)N[C@@H](CCC(=O)O)C(=O)NCCOCCOCC(=O)N[C@@H](CCCCNC(=O)CC[C@H](NC(=O)CNC(=O)CC[C@H](NC(=O)CCCCCCCCCCCCCCCCC(=O)O)C(=O)O)C(=O)O)C(N)=O)NC(=O)[C@H](CCCNC(=N)N)NC(=O)[C@H](Cc2c[nH]cn2)NC(=O)[C@H](CCC(=O)O)NC(=O)CNC(=O)[C@H](Cc2c[nH]c3ccccc23)NC(=O)[C@H](CC(=O)O)NC(=O)[C@H](CCC(N)=O)NC(=O)[C@H](Cc2cn(C)c3ccccc23)NC1=O [Compound 138] (Ac-SEFCI[Trp(1-Me)]QDWGEHRC[Sar]EGE[AEEA]K([γGlu-Gly-γGlu-C18 diacid])-NH2; disulfide 4-14) | < 100 nM | 
7 | CC[C@H](C)[C@H](NC(C)=O)C(=O)N[C@H]1CSSC[C@@H](C(=O)N[C@H](C(N)=O)[C@@H](C)O)NC(=O)[C@H](CO)NC(=O)[C@H](Cc2c[nH]cn2)NC(=O)[C@H](CCC(=O)O)NC(=O)CNC(=O)[C@H](Cc2c[nH]c3ccccc23)NC(=O)[C@H](CC(=O)O)NC(=O)[C@H](CCC(N)=O)NC(=O)[C@H](Cc2c[nH]c3ccccc23)NC(=O)[C@H](C(C)C)NC1=O [F, reference compound] (Ac-ICVWQDWGEHSCT-NH2; disulfide 2-12) |  | IC50 [2]: 540 nM
8 | CCC[C@@H]1NC(=O)[C@@H](NC(=O)[C@@H](NC(C)=O)[C@@H](C)CC)CSSC[C@@H](C(=O)N[C@H](C(N)=O)[C@@H](C)O)NC(=O)[C@H](CCCNC(=N)N)NC(=O)[C@H](Cc2c[nH]cn2)NC(=O)[C@H](CCC(=O)O)NC(=O)CNC(=O)[C@H](Cc2c[nH]c3ccccc23)NC(=O)[C@H](CC(=O)O)NC(=O)[C@H](CCC(N)=O)NC(=O)[C@H](Cc2c[nH]c3ccccc23)NC1=O [Norvaline, Ac-IC(1)XWQDWGEHRC(1)T-NH2, reference compound] (Ac-IC[Nva]WQDWGEHRCT-NH2; disulfide 2-12) |  | IC50 [3]: > 1000 nM
9 | CC[C@H](C)[C@H](NC(C)=O)C(=O)N[C@H]1CSSC[C@@H](C(=O)N[C@H](C(N)=O)[C@@H](C)O)NC(=O)[C@H](CCCNC(=N)N)NC(=O)[C@H](Cc2c[nH]cn2)NC(=O)[C@H](C)NC(=O)CNC(=O)[C@H](Cc2c[nH]c3ccccc23)NC(=O)[C@H](CC(=O)O)NC(=O)[C@H](CCC(N)=O)NC(=O)[C@H](Cc2c[nH]c3ccccc23)NC(=O)[C@H](C(C)C)NC1=O [Compound 4W9A, reference compound] | < 500 nM | IC50 (human serum, sensitized sheep red blood cells, Table 2, read-out: CP hemolysis IC50): 250 nM
10 | CC[C@H](C)[C@H](NC(C)=O)C(=O)N[C@H]1CSSC[C@@H](C(=O)N[C@H](C(N)=O)[C@@H](C)O)NC(=O)[C@H](CCCNC(=N)N)NC(=O)[C@H](Cc2c[nH]cn2)NC(=O)[C@H](CCC(=O)O)NC(=O)CNC(=O)[C@H](Cc2c[nH]c3ccccc23)NC(=O)[C@H](CC(=O)O)NC(=O)[C@H](CCC(N)=O)NC(=O)[C@H](Cc2c[nH]c3ccccc23)NC(=O)[C@H](C(C)C)NC1=O [A, reference compound] (Ac-ICVWQDWGEHRCT-NH2; disulfide 2-12) |  | IC50 [3]: 350 nM; IC50 [2]: 350 nM
11 | CC[C@H](C)[C@@H]1NC(=O)[C@@H](NC(=O)[C@H](Cc2ccccc2)NC(=O)[C@H](CCC(=O)O)NC(C)=O)CSSC[C@@H](C(=O)N[C@@H](CCC(=O)O)C(=O)NCC(=O)N[C@@H](CCC(=O)O)C(=O)N[C@@H](CCCCNC(=O)CC[C@H](NC(=O)CNC(=O)CC[C@H](NC(=O)CCCCCCCCCCCCCCCCC(=O)O)C(=O)O)C(=O)O)C(N)=O)NC(=O)[C@H](CCCNC(=N)N)NC(=O)[C@H](Cc2c[nH]cn2)NC(=O)[C@H](CCC(=O)O)NC(=O)CNC(=O)[C@H](Cc2c[nH]c3ccccc23)NC(=O)[C@H](CC(=O)O)NC(=O)[C@H](CCC(N)=O)NC(=O)[C@H](Cc2cn(C)c3ccccc23)NC1=O [Compound 134] (Ac-EFCI[Trp(1-Me)]QDWGEHRCEGEK([γGlu-Gly-γGlu-C18 diacid])-NH2; disulfide 3-13) | < 100 nM | 
12 | CC[C@H](C)[C@H](NC(=O)[C@H](C)NC(=O)[C@H](CO)NC(C)=O)C(=O)N[C@H]1CSSC[C@@H](C(=O)N[C@H](C(=O)N[C@@H](CCC(=O)O)C(=O)NCC(N)=O)[C@@H](C)O)NC(=O)[C@H](CCCNC(=N)N)NC(=O)[C@H](Cc2c[nH]cn2)NC(=O)[C@H](CCC(=O)O)NC(=O)CNC(=O)[C@H](Cc2c[nH]c3ccccc23)NC(=O)[C@H](CC(=O)O)NC(=O)[C@H](CCC(N)=O)NC(=O)[C@H](Cc2c[nH]c3ccccc23)NC(=O)[C@H]([C@@H](C)CC)NC1=O [Compound 42] (Ac-SAICIWQDWGEHRCTEG-NH2; disulfide 4-14) | < 250 nM | 
13 | CC[C@H](C)[C@H](NC(C)=O)C(=O)N[C@H]1CSSC[C@@H](C(=O)N[C@H](C(=O)NCC(=O)N[C@@H](C)C(=O)N[C@@H](CCC(=O)O)C(=O)N[C@@H](CO)C(N)=O)[C@@H](C)O)NC(=O)[C@H](CCCNC(=N)N)NC(=O)[C@H](Cc2c[nH]cn2)NC(=O)[C@H](CCC(=O)O)NC(=O)CNC(=O)[C@H](Cc2c[nH]c3ccccc23)NC(=O)[C@H](CC(=O)O)NC(=O)[C@H](CCC(N)=O)NC(=O)[C@H](Cc2c[nH]c3ccccc23)NC(=O)[C@H](C(C)C)NC1=O [D, reference compound] (Ac-ICVWQDWGEHRCTGAES-NH2; disulfide 2-12) |  | IC50 [2]: 210 nM
14 | CC[C@H](C)[C@@H]1NC(=O)[C@@H](NC(=O)[C@H](Cc2ccc(O)cc2)NC(=O)[C@H](CCC(=O)O)NC(=O)CNC(=O)[C@H](CO)NC(=O)[C@H](C)NC(C)=O)CSSC[C@@H](C(=O)N(C)CC(=O)N[C@@H](CCC(=O)O)C(=O)NCC(=O)N[C@@H](CCC(=O)O)C(=O)N[C@@H](CCCCNC(=O)CC[C@H](NC(=O)CNC(=O)CC[C@H](NC(=O)CCCCCCCCCCCCCCCCC(=O)O)C(=O)O)C(=O)O)C(N)=O)NC(=O)[C@H](CCCNC(=N)N)NC(=O)[C@H](Cc2c[nH]cn2)NC(=O)[C@H](CCC(=O)O)NC(=O)CNC(=O)[C@H](Cc2c[nH]c3ccccc23)NC(=O)[C@H](CC(=O)O)NC(=O)[C@H](CCC(N)=O)NC(=O)[C@H](Cc2cn(C)c3ccccc23)NC1=O [Compound 113] (Ac-ASGEYCI[Trp(1-Me)]QDWGEHRC[Sar]EGEK([γGlu-Gly-γGlu-C18 diacid])-NH2; disulfide 6-16) | < 500 nM | 
